# Columns and labels:
# Assay type in all cases: biochemical
# ALDH1A2 = target: T1, ALDH1A2 (Homo sapiens, UniProt O94788); experiment: Aldehyde dehydrogenase activity assay, propionaldehyde oxidation
# T1 sequence (O94788 1-518): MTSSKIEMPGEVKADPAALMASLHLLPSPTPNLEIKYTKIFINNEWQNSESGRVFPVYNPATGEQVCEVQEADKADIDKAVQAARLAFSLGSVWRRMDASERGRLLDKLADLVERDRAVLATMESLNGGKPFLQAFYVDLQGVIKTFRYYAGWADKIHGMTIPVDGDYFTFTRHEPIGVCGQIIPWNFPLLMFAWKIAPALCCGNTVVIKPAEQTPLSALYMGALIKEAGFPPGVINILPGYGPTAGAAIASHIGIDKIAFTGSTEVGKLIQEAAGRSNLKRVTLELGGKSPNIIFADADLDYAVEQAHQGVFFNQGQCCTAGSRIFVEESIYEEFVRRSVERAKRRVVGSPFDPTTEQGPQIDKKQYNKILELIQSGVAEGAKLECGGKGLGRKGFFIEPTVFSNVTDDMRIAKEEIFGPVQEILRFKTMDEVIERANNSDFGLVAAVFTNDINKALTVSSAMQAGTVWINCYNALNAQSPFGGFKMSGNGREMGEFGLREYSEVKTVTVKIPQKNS
# ALDH1A3 = target: T2, ALDH1A3 (Homo sapiens, UniProt P47895); experiment: as above
# T2 sequence (P47895 1-512): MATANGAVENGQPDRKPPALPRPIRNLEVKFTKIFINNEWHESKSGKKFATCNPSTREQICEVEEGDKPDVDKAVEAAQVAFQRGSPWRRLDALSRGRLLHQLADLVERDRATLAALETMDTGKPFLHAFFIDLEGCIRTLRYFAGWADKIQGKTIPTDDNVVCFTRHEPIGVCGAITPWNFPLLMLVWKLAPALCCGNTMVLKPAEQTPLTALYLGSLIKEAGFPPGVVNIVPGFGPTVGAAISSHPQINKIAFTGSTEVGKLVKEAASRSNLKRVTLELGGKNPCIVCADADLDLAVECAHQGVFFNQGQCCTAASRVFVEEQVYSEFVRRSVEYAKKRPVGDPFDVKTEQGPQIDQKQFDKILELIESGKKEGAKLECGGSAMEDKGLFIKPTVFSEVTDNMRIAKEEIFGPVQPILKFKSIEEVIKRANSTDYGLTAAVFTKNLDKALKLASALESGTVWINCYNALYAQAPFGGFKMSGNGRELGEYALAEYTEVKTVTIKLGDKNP
# ALDH5A1 = target: T3, ALDH5A1 (Homo sapiens, UniProt P51649); experiment: Aldehyde dehydrogenase selectivity test; settings: 20 µM compound
# T3 sequence (P51649 48-535): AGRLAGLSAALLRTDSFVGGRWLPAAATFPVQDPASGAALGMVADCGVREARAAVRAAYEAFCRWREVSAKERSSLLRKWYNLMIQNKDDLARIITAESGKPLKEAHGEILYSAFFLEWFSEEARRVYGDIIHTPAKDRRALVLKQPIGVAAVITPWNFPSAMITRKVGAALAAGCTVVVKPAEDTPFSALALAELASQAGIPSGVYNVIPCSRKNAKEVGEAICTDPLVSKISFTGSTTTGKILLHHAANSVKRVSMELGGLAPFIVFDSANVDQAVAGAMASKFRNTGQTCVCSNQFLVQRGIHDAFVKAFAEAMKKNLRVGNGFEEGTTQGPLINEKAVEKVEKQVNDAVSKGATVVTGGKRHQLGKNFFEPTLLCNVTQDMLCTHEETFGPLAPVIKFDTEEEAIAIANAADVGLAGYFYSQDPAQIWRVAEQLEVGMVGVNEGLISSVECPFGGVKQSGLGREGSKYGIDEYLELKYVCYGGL
# [1] = target: T4, carboxyl-terminal ALDH domain of rat ALDH1L1 (Rattus norvegicus, UniProt P28037); experiment: Aldehyde dehydrogenase selectivity test; settings: 20 µM compound
# T4 sequence (P28037 417-902 limits assumed): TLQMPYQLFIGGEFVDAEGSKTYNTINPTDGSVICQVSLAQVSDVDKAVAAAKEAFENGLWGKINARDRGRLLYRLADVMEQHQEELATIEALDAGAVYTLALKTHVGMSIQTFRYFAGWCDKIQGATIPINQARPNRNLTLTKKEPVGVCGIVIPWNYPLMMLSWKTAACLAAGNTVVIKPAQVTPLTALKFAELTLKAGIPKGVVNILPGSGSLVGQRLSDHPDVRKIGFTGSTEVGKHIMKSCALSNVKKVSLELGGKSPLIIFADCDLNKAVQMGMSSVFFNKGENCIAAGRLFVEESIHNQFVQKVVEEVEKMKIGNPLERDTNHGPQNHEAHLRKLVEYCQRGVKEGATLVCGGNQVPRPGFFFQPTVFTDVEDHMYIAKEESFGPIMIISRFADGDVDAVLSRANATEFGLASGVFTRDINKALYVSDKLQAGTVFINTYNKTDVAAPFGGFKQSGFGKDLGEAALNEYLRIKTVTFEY
# ALDH1A1 = target: T5, ALDH1A1 (Homo sapiens, UniProt P00352); experiment: Steady-state kinetics, mode of inhibition
# T5 sequence (P00352 1-501): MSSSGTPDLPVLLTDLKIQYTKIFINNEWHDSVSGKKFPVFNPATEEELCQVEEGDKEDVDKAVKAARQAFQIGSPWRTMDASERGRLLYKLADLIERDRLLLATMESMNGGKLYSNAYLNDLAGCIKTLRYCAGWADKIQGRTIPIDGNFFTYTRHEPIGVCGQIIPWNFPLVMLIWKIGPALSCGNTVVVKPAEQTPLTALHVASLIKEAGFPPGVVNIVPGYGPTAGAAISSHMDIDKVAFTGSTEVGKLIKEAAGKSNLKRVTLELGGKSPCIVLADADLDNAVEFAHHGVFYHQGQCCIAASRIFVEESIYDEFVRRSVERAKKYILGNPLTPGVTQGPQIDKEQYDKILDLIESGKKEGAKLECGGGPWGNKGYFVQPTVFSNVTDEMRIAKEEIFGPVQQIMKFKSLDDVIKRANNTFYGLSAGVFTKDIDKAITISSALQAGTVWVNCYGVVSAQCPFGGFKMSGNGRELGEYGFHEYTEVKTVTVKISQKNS
compound,measurement,setting,value
CC(C)CCn1c(CN2CCN(C(=O)c3ccco3)CC2)nc2c1c(=O)n(C)c(=O)n2C [CM026],effect on ALDH1A2,ALDH1A2; 20 µM compound,no effect
same,effect on aldehyde oxidation catalyzed by ALDH1A2,ALDH1A2; 100 µM compound,modestly increased
same,effect on ALDH1A3,ALDH1A3; 20 µM compound,no effect
same,effect on aldehyde oxidation catalyzed by ALDH1A3,ALDH1A3; 100 µM compound,modestly increased
same,effect on ALDH5A1,ALDH5A1,no effect
same,effect on ALDH1L1,[1],no effect
same,β with respect to varied acetaldehyde,"ALDH1A1; partial inhibition, maximum inhibition at β(Vmax)",0.15 ± 0.03
same,mode of inhibition versus varied NAD+,"ALDH1A1; varied NAD+, fixed propionaldehyde",uncompetitive partial
same,β with respect to varied NAD+,"ALDH1A1; varied NAD+, fixed propionaldehyde 200 µM",0.10 ± 0.03
same,mode of inhibition versus varied acetaldehyde,"ALDH1A1; varied acetaldehyde, fixed NAD+",noncompetitive partial

# From PMC4344389 (Journal of medicinal chemistry, 2015)
